Key:
Assay type in all cases: biochemical
Kdr = biological target: T1, Kdr (Homo sapiens, UniProt P35968); experiment: Z'-Lyte FRET kinase assay (Invitrogen), Kdr; details: read-out: IC50, activity toward kinase Kdr
T1 construct: purchased Invitrogen (assay run by Invitrogen)

Btk = biological target: T2, Btk (Homo sapiens, UniProt Q06187); experiment: Z'-Lyte FRET kinase assay (Invitrogen), Btk; details: read-out: IC50, activity toward kinase Btk
T2 construct: purchased Invitrogen (assay run by Invitrogen)

Yes = biological target: T3, Yes (Homo sapiens, UniProt P07947); experiment: Z'-Lyte FRET kinase assay (Invitrogen), Yes; details: read-out: IC50, activity toward kinase Yes
T3 construct: purchased Invitrogen (Carlsbad, Calif.), screening service
Outline: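 10 μM ATP, 2 μM peptide, 1% DMSO final; HEPES pH 7.5 buffer with MgCl2/EGTA/BRIJ-35. Kinase rxn 1 h RT, protease development 1 h RT, stop, read donor/acceptor ratio. Compound titrated.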

EphB2 = biological target: T4, EphB2 (Homo sapiens, UniProt P29323); experiment: Z'-Lyte FRET kinase assay (Invitrogen), EphB2; details: read-out: IC50, activity toward kinase EphB2
T4 construct: purchased Invitrogen (assay run by Invitrogen)
T4 sequence (P29323 19-1055): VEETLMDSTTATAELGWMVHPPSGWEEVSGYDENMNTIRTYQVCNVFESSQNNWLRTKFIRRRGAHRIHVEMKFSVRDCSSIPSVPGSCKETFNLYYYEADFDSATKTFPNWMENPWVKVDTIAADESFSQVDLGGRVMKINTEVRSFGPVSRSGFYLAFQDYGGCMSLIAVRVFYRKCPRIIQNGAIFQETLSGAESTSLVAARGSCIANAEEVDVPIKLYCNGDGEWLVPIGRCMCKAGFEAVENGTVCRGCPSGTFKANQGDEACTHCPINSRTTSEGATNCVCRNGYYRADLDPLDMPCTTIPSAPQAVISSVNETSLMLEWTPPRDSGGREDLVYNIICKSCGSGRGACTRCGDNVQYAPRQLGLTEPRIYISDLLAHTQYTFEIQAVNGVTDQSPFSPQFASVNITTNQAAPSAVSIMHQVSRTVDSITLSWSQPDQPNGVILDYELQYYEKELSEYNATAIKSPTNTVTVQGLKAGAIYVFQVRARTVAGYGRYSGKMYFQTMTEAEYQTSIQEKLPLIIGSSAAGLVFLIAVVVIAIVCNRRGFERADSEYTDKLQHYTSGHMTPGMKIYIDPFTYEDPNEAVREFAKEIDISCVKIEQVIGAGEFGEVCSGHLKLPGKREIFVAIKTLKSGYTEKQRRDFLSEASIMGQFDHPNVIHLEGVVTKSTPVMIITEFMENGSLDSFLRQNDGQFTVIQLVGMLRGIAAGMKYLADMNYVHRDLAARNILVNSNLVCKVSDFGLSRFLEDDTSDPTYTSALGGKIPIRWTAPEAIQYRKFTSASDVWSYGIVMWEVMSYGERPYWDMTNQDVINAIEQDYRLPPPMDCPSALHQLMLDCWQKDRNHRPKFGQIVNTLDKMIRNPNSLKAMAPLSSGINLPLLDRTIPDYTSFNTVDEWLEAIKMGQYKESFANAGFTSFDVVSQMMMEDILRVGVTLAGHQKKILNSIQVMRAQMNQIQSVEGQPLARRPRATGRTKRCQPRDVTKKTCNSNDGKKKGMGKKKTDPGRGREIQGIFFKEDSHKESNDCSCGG
Text: The effect of potential modulators of kinase activity can be measured in a variety of different assays known in the art. For example, direct radiometric, indirect FRET or AlphaScreen assays may be used to assess the level of phosphorylation of a substrate in the presence of test compounds in order to determine the inhibitory affect of the compound on the kinase. Invitrogen (Carlsbad, Calif.) uses a FRET based assay for Btk, EGFR, EphB2, Flt3, lrak4, Kdr, MAP2K1, MAPKAPK2, PDGFRB, PKC theta, Stk6 and Yes. For these assays, compounds of the invention were screened by Invitrogen using Z′-Lyte™ kinase assay.
Briefly, the Invitrogen kinase assay involves use of a specific peptide substrate optimized for each kinase, containing a fluorophore at each end that make up the FRET pair. The peptide sensitivity to proteolytic cleavage depends on phosphorylation of the peptide. Non-phosphorylated peptide is cleaved by a protease while peptide phosphorylated by the kinase is not cleaved. Cleavage of the peptide disrupts the FRET between the donor (coumarin) and acceptor (fluorescein) fluorophores, resulting in an increase in the ratio of donor emission to acceptor emission. The emission ratio of coumarin to fluorescein is used to assess the reaction progress. The extent of phosphorylation is determined from the emission ratio, which is low when the kinase is active (phosphorylated peptide is not cleaved, FRET pair connected) or higher for inhibited kinase (non-phosphorylated peptide is cleaved, FRET pair separated). Thus, the assay involves a kinase reaction in the presence of varying concentrations of a given compound, a development reaction with site specific protease, and detection of the fluorescent emission ratio of coumarin and fluorscein. […] Reaction conditions for each kinase are determined to provide optimal reaction times, incubation temperature, kinase and ATP concentrations. Test samples are made up in 1× kinase buffer (50 mM HEPES pH 7.5, 50 mM MgCl2, 5 mM EGTA, 0.05% BRIJ-35) and compound at desired concentration prepared in DMSO such that the final DMSO is 1%. […] Typically, assay plates are prepared to 10 μl final volume per sample, adding 2.5 μl of compound at 4× the desired concentration in 4% DMSO (serial dilution of compound provides concentration curve), 5 μl of the desired kinase mixed with Z′-LYTE™ peptide substrate (2× in 2× kinase buffer, final peptide at 2 μM), and 2.5 μl of 4×ATP solution. All kinase except for MAP2K1 were at 10 μM ATP in the kinase reaction, while MAP2K1 was at 100 μM. Samples are mixed and the kinase reaction is incubated 1 hour at room temperature, after which 5 μl of development solution is added and mixed. After incubation for another 1 hour at room temperature, 5 μl of stop reagent is added to each sample and mixed. The fluorescence signals are measured to determine the emission ratio.

Fms = biological target: T5, Fms (Homo sapiens, UniProt P07333); experiment: AlphaScreen kinase assay, Fms; details: read-out: IC50, activity toward kinase Fms
T5 construct: purchased Upstate Biotechnology

B-Raf V600E = biological target: T6, B-Raf V600E (Homo sapiens, UniProt P15056, V600E); experiment: AlphaScreen kinase assay, B-Raf V600E; details: read-out: IC50, activity toward kinase B-Raf V600E
T6 construct: P4254. pFastBacBD-CDC37 BRAF D437-K722-X, V600E; His6 with pFastBac HT leader (TEV site) (N); made in house; host or cells: Sf9 (baculovirus; chaperone CDC37 co-expressed)

Ret = biological target: T7, Ret (Homo sapiens, UniProt P07949); experiment: AlphaScreen kinase assay, Ret; details: read-out: IC50, activity toward kinase Ret
T7 construct: P1378.pET-SF BI-PTP RET H661-R1012 HIS; made in house
T7 sequence (P07949 with tags, fused parts or gaps): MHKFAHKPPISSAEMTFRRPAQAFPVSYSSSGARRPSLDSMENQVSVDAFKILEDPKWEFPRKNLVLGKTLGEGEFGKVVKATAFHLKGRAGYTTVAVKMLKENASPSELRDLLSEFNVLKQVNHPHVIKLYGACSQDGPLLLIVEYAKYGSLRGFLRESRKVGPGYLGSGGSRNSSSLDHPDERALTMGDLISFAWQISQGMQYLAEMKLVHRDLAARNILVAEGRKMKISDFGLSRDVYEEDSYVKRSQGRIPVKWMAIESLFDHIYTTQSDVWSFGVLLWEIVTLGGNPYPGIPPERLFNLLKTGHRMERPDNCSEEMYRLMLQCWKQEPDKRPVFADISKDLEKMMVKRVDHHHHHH

Stk6 = biological target: T8, Stk6 (Homo sapiens, UniProt O14965); experiment: Z'-Lyte FRET kinase assay (Invitrogen), Stk6; details: read-out: IC50, activity toward kinase Stk6
T8 construct: purchased Invitrogen (Carlsbad, Calif.), screening service
T8 sequence (O14965 1-403): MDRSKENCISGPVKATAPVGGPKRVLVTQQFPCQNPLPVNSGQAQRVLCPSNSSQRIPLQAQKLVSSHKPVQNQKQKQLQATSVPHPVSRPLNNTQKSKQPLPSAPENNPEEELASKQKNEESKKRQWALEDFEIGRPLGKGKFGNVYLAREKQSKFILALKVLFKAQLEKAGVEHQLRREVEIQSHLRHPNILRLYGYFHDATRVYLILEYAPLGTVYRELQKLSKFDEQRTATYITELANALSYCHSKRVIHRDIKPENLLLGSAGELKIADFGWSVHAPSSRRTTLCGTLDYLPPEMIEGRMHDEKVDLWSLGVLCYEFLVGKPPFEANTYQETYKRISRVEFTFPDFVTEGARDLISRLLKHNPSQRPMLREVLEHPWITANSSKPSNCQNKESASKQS

FGFR1 = biological target: T9, FGFR1 (Homo sapiens, UniProt P11362, C488A/C584S); experiment: AlphaScreen kinase assay, FGFR1; details: read-out: IC50, activity toward kinase FGFR
T9 construct: P1351.pET N6 BI-PTP FGFR A458-E765-X C488A, C584S; made in house; host or cells: E. coli (PTP1B co-expressed)
Text: AlphaScreen assay was used to screen additional kinases. The assay is similarly dependent on the phosphorylation of a peptide substrate. In this assay, an antibody that recognizes phosphorylated substrate is bound to an acceptor bead. The peptide substrate is attached to biotin, which binds to a donor head that contains streptavidin. Thus phosphorylated substrate is bound by antibody and streptavidin, bringing the donor and acceptor heads into close proximity when kinase is not inhibited. The donor produces singlet oxygen which results in emission from the acceptor when they are in close proximity. Conversely, when kinase is inhibited, the donor and acceptor beads are not associated and the emission from the acceptor is reduced.
AlphaScreen assays were done using compounds dissolved in DMSO to a concentration of 20 mM. The compounds were diluted accordingly to the desired final concentrations in each sample well, using 1:3 serial dilution for a total of 8 concentration points. Plates were prepared such that each kinase reaction is 20 μl in 1× kinase buffer, 5% DMSO and 10 μM ATP. After incubation of the kinase reaction for 1 hour at room temperature, 5 μl of donor beads in stop buffer (50 mM EDTA in 1× kinase buffer) was added, the sample was mixed and incubated for 20 minutes at room temperature before adding 5 μl of acceptor beads in stop buffer. The samples were incubated for 60 minutes at room temperature and the signal per well was read on AlphaQuest reader.

Abl = biological target: T10, Abl (Homo sapiens, UniProt P00519); experiment: AlphaScreen kinase assay, Abl; details: read-out: activity toward kinase Abl, IC50
T10 construct: P1121. pET-SPEC BI-PTP Abl G227-V515-X; His6 (N); made in house; host or cells: E. coli (PTP1B co-expressed)
T10 sequence (P00519 with tags, fused parts or gaps): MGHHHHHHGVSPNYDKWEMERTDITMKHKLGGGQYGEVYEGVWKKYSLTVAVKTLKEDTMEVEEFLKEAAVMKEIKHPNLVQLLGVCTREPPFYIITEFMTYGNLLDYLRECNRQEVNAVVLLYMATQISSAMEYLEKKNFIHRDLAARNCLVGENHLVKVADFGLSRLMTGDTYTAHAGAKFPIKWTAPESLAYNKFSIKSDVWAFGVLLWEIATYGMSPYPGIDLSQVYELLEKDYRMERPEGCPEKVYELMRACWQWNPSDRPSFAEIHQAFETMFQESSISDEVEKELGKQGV
Outline: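 Compounds in DMSO (20 mM stock) were diluted 1:3 across 8 points. Each kinase phosphorylated a biotin-labelled peptide. Signal generated when donor and acceptor beads came close via antibody binding of phosphorylated substrate.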

B-Raf = biological target: T11, B-Raf (Homo sapiens, UniProt P15056); experiment: AlphaScreen kinase assay, B-Raf; details: read-out: IC50, activity toward kinase B-Raf
T11 construct: purchased Upstate Biotechnology

Jnk3 = biological target: T12, Jnk3 (Homo sapiens, UniProt P53779); experiment: AlphaScreen kinase assay, Jnk3; details: read-out: IC50, activity toward kinase Jnk3
T12 construct: purchased Upstate Biotechnology

Kit = biological target: T13, Kit (Homo sapiens, UniProt P10721); experiment: AlphaScreen kinase assay, Kit; details: read-out: IC50, activity toward kinase Kit
T13 construct: P1332.N6 BI PTP KIT M552-K948-X COD; His6 (N); made in house; host or cells: E. coli (PTP1B co-expressed)

Measured: IC50

T1 sequence (P35968 20-1356): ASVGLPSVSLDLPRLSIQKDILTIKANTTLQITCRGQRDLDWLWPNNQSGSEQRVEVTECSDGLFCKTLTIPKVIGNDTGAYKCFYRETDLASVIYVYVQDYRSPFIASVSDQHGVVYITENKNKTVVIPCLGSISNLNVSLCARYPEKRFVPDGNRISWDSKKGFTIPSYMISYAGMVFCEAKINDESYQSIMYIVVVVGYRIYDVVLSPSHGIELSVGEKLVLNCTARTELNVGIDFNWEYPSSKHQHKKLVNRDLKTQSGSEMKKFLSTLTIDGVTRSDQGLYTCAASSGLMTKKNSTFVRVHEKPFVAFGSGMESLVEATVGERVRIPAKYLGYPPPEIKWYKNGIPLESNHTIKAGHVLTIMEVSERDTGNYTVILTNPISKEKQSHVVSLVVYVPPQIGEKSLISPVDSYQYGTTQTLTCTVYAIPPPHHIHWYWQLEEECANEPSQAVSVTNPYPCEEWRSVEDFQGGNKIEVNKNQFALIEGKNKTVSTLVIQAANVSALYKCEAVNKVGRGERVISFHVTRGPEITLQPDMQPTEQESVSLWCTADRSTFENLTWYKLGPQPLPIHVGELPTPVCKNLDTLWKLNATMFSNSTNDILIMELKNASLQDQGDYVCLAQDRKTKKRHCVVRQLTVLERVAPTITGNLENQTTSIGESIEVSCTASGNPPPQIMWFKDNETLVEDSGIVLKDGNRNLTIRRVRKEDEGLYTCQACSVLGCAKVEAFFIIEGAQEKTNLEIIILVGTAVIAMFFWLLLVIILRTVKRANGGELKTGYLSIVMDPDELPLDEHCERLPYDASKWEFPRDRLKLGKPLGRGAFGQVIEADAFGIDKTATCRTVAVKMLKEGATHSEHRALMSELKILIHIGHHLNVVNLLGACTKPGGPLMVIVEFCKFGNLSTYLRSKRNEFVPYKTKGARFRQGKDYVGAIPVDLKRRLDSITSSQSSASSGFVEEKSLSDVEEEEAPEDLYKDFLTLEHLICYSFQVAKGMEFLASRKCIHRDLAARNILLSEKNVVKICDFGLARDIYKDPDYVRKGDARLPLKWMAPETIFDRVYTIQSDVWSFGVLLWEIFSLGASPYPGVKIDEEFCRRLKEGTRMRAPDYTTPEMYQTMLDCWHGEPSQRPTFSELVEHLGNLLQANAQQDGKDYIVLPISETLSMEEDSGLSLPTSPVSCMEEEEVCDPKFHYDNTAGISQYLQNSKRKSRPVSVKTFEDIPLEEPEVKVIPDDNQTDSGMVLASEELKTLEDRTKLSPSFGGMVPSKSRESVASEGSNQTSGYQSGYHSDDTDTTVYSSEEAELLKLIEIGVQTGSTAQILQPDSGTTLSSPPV
T2 sequence (Q06187 whole entry): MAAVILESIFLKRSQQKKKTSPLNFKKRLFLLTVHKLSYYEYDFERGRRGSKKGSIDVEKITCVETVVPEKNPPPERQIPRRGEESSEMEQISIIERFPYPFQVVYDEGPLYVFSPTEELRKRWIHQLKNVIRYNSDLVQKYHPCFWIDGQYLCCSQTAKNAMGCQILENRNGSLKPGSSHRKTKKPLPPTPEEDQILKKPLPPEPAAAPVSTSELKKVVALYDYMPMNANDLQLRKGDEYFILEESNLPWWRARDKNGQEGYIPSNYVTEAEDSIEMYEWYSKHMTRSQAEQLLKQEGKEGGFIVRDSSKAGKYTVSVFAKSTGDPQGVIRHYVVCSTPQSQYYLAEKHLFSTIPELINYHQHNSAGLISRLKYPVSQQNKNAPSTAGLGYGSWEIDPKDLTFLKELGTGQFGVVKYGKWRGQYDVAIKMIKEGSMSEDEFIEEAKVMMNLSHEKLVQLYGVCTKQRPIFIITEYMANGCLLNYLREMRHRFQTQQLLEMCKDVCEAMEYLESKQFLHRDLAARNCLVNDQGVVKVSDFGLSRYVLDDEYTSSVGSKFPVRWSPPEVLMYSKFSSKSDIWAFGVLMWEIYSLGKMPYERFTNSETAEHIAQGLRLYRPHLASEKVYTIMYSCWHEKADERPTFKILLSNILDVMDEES
T3 sequence (P07947 whole entry): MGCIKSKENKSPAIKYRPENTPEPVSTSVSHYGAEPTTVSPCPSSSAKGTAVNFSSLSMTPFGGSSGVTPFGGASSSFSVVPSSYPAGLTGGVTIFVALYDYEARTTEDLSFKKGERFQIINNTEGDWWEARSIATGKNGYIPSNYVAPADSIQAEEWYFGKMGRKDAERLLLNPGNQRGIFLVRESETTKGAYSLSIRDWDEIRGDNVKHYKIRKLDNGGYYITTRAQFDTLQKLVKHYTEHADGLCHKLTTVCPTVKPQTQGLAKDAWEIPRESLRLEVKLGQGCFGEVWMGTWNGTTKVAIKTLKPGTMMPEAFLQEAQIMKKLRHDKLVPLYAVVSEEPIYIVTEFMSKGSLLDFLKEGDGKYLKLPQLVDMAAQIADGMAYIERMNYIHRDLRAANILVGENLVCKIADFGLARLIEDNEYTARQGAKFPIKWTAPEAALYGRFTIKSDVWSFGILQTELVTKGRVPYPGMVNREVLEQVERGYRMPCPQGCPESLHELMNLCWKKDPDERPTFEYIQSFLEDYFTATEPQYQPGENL
T6 sequence (P15056 with tags, fused parts or gaps V600E): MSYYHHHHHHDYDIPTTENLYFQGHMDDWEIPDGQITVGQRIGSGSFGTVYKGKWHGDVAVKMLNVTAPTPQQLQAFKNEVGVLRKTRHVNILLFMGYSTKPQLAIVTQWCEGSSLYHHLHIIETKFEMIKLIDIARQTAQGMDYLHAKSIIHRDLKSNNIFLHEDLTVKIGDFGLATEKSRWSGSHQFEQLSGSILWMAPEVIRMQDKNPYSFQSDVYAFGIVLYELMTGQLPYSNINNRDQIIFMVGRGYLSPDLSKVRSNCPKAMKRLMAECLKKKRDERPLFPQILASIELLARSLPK
T11 sequence (P15056 whole entry): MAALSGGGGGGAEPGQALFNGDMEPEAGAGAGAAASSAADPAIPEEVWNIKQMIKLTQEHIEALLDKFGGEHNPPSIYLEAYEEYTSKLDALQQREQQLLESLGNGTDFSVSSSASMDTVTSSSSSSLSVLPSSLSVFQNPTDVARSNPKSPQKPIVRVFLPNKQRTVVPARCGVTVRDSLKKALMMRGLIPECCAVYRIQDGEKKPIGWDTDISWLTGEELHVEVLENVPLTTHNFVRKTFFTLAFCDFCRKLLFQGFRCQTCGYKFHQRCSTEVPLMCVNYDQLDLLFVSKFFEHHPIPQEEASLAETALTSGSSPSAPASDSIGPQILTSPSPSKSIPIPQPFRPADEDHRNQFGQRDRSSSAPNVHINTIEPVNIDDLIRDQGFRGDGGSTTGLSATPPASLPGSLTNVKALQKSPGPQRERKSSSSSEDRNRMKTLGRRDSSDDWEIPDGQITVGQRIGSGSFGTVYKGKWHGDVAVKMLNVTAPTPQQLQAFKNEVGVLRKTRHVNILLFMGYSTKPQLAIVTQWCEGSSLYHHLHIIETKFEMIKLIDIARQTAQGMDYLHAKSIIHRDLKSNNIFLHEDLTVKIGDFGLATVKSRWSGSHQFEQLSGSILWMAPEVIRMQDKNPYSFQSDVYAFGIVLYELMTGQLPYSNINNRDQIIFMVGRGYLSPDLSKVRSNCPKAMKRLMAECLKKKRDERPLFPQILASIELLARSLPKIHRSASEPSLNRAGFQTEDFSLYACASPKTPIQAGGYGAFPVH
T9 sequence (P11362 458-765 C488A/C584S): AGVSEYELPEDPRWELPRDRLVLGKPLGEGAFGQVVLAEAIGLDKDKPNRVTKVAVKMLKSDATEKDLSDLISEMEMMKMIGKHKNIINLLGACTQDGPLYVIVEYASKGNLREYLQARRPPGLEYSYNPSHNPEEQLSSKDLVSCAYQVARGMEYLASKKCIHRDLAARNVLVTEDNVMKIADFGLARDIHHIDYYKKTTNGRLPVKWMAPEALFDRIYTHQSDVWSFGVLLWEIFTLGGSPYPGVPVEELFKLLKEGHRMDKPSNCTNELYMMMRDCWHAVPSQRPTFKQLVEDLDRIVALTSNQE
T12 sequence (P53779 whole entry): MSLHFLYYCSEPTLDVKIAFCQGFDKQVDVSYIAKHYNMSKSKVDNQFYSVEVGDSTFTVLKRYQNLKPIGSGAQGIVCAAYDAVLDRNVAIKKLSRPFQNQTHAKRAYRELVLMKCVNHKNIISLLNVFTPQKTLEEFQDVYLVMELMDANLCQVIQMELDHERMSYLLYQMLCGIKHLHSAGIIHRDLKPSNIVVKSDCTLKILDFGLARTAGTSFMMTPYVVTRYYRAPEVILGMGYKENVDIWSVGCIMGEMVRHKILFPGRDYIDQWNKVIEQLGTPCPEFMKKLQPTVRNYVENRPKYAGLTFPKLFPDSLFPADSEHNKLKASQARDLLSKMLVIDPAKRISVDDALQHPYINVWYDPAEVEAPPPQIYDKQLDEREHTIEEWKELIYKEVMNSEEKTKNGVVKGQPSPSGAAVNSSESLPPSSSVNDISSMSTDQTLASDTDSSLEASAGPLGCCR
T13 sequence (P10721 with tags, fused parts or gaps): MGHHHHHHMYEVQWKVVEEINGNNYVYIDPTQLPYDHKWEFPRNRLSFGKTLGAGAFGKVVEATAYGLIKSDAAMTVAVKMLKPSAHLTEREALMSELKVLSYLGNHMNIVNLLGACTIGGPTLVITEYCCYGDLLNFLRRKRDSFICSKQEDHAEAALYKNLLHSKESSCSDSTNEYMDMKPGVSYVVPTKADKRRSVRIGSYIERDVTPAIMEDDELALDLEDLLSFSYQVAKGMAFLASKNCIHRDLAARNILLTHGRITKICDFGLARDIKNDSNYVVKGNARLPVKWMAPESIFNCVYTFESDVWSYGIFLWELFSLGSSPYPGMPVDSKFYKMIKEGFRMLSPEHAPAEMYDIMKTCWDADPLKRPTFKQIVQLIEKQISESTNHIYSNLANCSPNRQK

Brc1cnc2[nH]cc(Sc3ccccc3)c2c1 [Compound P-0125]
≤ 10 µM: Kdr | Btk | Yes | EphB2

COc1cccc(Sc2c[nH]c3ncc(Br)cc23)c1 [Compound P-0145]
≤ 10 µM: Fms | Kdr | Btk | Yes | EphB2

O=C(c1cccc(Cl)c1Cl)c1c[nH]c2nccc(-c3cccnc3)c12 [Compound P-0043]
not listed: Fms | Abl | B-Raf | Jnk3 | Kit
≤ 10 µM: all other assays above

O=C(c1cccc(O)c1)c1c[nH]c2ncc(-c3cc(F)cc(F)c3)cc12 [Compound P-0074]
≤ 10 µM: B-Raf V600E | Kdr | Btk | Yes | EphB2 | Abl

O=C(c1ccccc1F)c1c[nH]c2nccc(-c3cccnc3)c12 [Compound P-0062]
≤ 10 µM: B-Raf V600E | Yes | EphB2

CCc1cnc2[nH]cc(C(=O)c3cccc(O)c3)c2c1 [Compound P-0059]
not listed: Fms | Stk6 | Abl
≤ 10 µM: all other assays above

NC(=O)c1cccc(-c2ccnc3[nH]cc(C(=O)c4cccc(Cl)c4Cl)c23)c1 [Compound P-0139]
≤ 10 µM: B-Raf V600E | Kdr | Btk | Yes | EphB2 | Ret

COc1ccc(-c2ccnc3[nH]cc(C(=O)c4cccc(Cl)c4Cl)c23)cn1 [Compound P-0107]
≤ 10 µM: B-Raf V600E | Kdr | Btk | Yes | EphB2 | Ret

CC(=O)Nc1cccc(-c2ccnc3[nH]cc(C(=O)c4cccc(Cl)c4Cl)c23)c1 [Compound P-0186]
≤ 10 µM: B-Raf V600E | EphB2 | Ret

COC(c1c(F)ccc(O)c1F)c1c[nH]c2ncc(Br)cc12 (centres unmarked) [Compound P-0126, 3-[(5-Bromo-1H-pyrrolo[2,3-b]pyridin-3-yl)-methoxy-methyl]-2,4-difluoro-phenol]
≤ 10 µM: B-Raf | B-Raf V600E | Kdr | Yes | EphB2

— patent US8415469B2, “Compounds and methods for kinase modulation, and indications therefor” (Plexxikon Inc., priority 2005, dated 2013)
